Values joined by “and” are separate entries in the source; they are usually repeats but may differ in a detail not shown here. Equal values may be shown once. Where a name gives a salt, the structure may show the parent alone. Read-outs that look alike come from different tables or passages of the source.
Experiments:
[1] = system: mucin immobilized to IAM.PC.DD2; experiment: HPLC on MIC column (2:1 mucin to PC IAM particles): retention time, k′MIC, derived Km and Peff MIC; conditions: for k′MIC / Retention Time: MIC column 2:1 mucin:IAM, MPS pH 7.4; for Retention Time: isocratic 0.3 ml/min; for Dm: membrane diffusion coefficient calculated from molecular weight; for K′MIC: Table 5
Protocol: [formula] where Dm is the membrane diffusion coefficient of the solute, Km is the membrane equilibrium constant, and L is the membrane thickness (Stein, W., Transport and Diffusion Across Cell Membranes, Academic Press, Orlando, Fla. (1986)). […] Since molecular weight, MW, is proportional to molecular size, Dm may also written as,
[formula] Thus, Dm can be calculated from the molecular weight. Furthermore, Km is calculated by the following equation, Km−(Vm/Vs)k′, [4] where Vm is the volume of the mobile phase, Vs is the internal volume of the stationary phase, and k′ is the partition ratio (Pidgeon and Ong, Chemtech. June, 38-48 (1995)). The partition ratio is determined by the equation, k′−(tr−to)/to, [5] where tr is the retention time of the drug and to is the void volume of the column. Both tr and to can be experimentally determined in order to obtain k′.
Equation 2 can be used to determine Km for a given MIC medium. Both Dm and L are known from the discussion above, and Peff can be calculated for various drugs having known in vivo absorption. For example, a number of drug permeability coefficients, Peff, derived from in vivo experiments are listed in literature. […] See Example 5 below.

[2] = system: mucin immobilized to PC IAM particles; experiment: pH and mucin layer thickness dependence of partition ratio on MIC columns (1:2 and 2:1); conditions: for (1:2) k′ (pH 3) / (1:2) k′ (pH 5) / (1:2) k′ (pH 7): column 1:2 mucin to PC IAM, 0.32 μm mucin layer; for (1:2) k′ (pH 3) / (2:1) k′ (pH 3): mobile phase pH 3; for (1:2) k′ (pH 5) / (2:1) k′ (pH 5): mobile phase pH 5; for (1:2) k′ (pH 7) / (2:1) k′ (pH 7): mobile phase pH 7; for (2:1) k′ (pH 3) / (2:1) k′ (pH 5) / (2:1) k′ (pH 7): column 2:1 mucin to PC IAM, 0.36 μm mucin layer
[3] = cited from earlier work
[4] = single-pass perfusions, cited from earlier work

SMILES: Nc1nc2c(ncn2COCCO)c(=O)[nH]1 [Acyclovir]
- k′MIC [1]: 33.5714
- Retention Time [1]: 2.4
- Dm [1]: 0.0044
- (1:2) k′ (pH 3) [2]: 25.67
- (1:2) k′ (pH 5) [2]: 15.67
- (1:2) k′ (pH 7) [2]: 25.67
- (2:1) k′ (pH 3) [2]: 20.43
- (2:1) k′ (pH 5) [2]: 20.43
- (2:1) k′ (pH 7) [2]: 24.00

SMILES: C=CCc1ccccc1OCC(O)CNC(C)C (stereo not drawn) [Alprenolol]
- k′MIC [1]: 46.1429
- Retention Time [1]: 3.3
- Dm [1]: 0.0035
- (1:2) k′ (pH 3) [2]: 54.00
- (1:2) k′ (pH 5) [2]: 64.00
- (1:2) k′ (pH 7) [2]: 42.33
- (2:1) k′ (pH 3) [2]: 43.29
- (2:1) k′ (pH 5) [2]: 49.00
- (2:1) k′ (pH 7) [2]: 82.33

SMILES: Cn1c(=O)c2c(ncn2C)n(C)c1=O [Caffeine]
- k′MIC [1]: 37.5714
- Retention Time [1]: 2.7
- Dm [1]: 0.0051
- (1:2) k′ (pH 3) [2]: 44.00
- (1:2) k′ (pH 5) [2]: 44.00
- (1:2) k′ (pH 7) [2]: 45.67
- (2:1) k′ (pH 3) [2]: 34.71
- (2:1) k′ (pH 5) [2]: 34.71
- (2:1) k′ (pH 7) [2]: 39.00

SMILES: CN/C(=N/CCSCc1nc[nH]c1C)NC#N [Cimetidine]
- Dm [1]: 0.0039 and 0.0040
- (1:2) k′ (pH 3) [2]: 25.67
- (1:2) k′ (pH 5) [2]: 29.00
- (1:2) k′ (pH 7) [2]: 44.00
- (2:1) k′ (pH 3) [2]: 17.57
- (2:1) k′ (pH 5) [2]: 23.29
- (2:1) k′ (pH 7) [2]: 35.67

SMILES: CC(C)Cc1ccc(C(C)C(=O)O)cc1 (stereo not drawn) [Ibuprofen]
- k′MIC [1]: 53.2857
- Retention Time [1]: 3.8
- Dm [1]: 0.0044

SMILES: CC(C(=O)O)c1cccc(C(=O)c2ccccc2)c1 (stereo not drawn) [Ketoprofen]
- K′MIC ([1]; MIC 2:1): 52
- k′MIC [1]: 52.5714
- Retention Time [1]: 3.8
- Dm [1]: 0.0039
- k′MIC (1:2) ([2]; column 1:2, 0.32 μm, pH 7, Table 9): 82.3
- (1:2) k′ (pH 3) [2]: 25.67
- (1:2) k′ (pH 5) [2]: 29.00
- (1:2) k′ (pH 7) [2]: 82.33
- k′MIC (2:1) ([2]; column 2:1, 0.36 μm, pH 7, Table 9): 70.7
- (2:1) k′ (pH 3) [2]: 20.43
- (2:1) k′ (pH 5) [2]: 27.57
- (2:1) k′ (pH 7) [2]: 70.67

SMILES: CC(CCc1ccccc1)NCC(O)c1ccc(O)c(C(N)=O)c1 (stereo not drawn) [Labetalol]
- k′MIC [1]: 53.2857
- Retention Time [1]: 3.8
- Dm [1]: 0.0027
- (1:2) k′ (pH 3) [2]: 24.00
- (1:2) k′ (pH 5) [2]: 24.00
- (1:2) k′ (pH 7) [2]: 32.33
- (2:1) k′ (pH 3) [2]: 79.00
- (2:1) k′ (pH 5) [2]: 90.43
- (2:1) k′ (pH 7) [2]: 132.33

SMILES: OC[C@@H](O)[C@@H](O)[C@H](O)[C@H](O)CO [Mannitol]
- k′MIC [1]: 33.4286
- Retention Time [1]: 2.4
- Dm [1]: 0.0055

SMILES: COc1ccc2cc([C@H](C)C(=O)O)ccc2c1 [Naproxen]
- % Absorbed ([3]; Table 5): 100%
- % Absorbed ([3]; Table 6): 100%
- Peff Loc-I-Gut (×10^−4 cm/s) ([4]; Table 5): 8.0 ×10^−4 cm/s
- Peff Loc-I-Gut (×10^−4 cm/s) ([4]; Table 6): 8.0 ×10^−4 cm/s
- Peff Loc-I-Gut (×10^−4 cm/s) ([4]; Table 9): 8.0 ×10^−4 cm/s

SMILES: CC(COc1ccccc1)N(CCCl)Cc1ccccc1 (stereo not drawn) [Phenoxybenzamine HCl]
- (1:2) k′ (pH 3) [2]: 20.67
- (1:2) k′ (pH 5) [2]: 29.00
- (1:2) k′ (pH 7) [2]: 29.00
- (2:1) k′ (pH 3) [2]: 20.43
- (2:1) k′ (pH 5) [2]: 17.57
- (2:1) k′ (pH 7) [2]: 15.67

SMILES: CC(C)(C)NC[C@H](O)COc1nsnc1N1CCOCC1 [Timolol]
- k′MIC [1]: 36.1429
- Retention Time [1]: 2.6
- Dm [1]: 0.0023

SMILES: COc1ccc(CCN(C)CCCC(C#N)(c2ccc(OC)c(OC)c2)C(C)C)cc1OC (stereo not drawn) [Verapamil]
- K′MIC ([1]; MIC 2:1): 71.86
- k′MIC [1]: 71.8571
- Retention Time [1]: 5.1
- Dm [1]: 0.0020

SMILES: CC(=O)CC(c1ccccc1)c1c(O)c2ccccc2oc1=O (stereo not drawn) [Warfarin]
- δ = log k′MIC − log k′IAM [1]: 0.59
- log k′MIC ([1]; MIC 2:1): 1.74
- k′MIC [1]: 54.7143
- Retention Time [1]: 3.9
- Dm [1]: 0.0032
- (1:2) k′ (pH 3) [2]: 25.67
- (1:2) k′ (pH 5) [2]: 30.67
- (1:2) k′ (pH 7) [2]: 39.00
- (2:1) k′ (pH 3) [2]: 21.86
- (2:1) k′ (pH 5) [2]: 24.71
- (2:1) k′ (pH 7) [2]: 19.00

SMILES: CC(=O)Nc1ccc(O)cc1 [acetaminophen]
- k′MIC [1]: 38.2857
- Retention Time [1]: 2.8
- Dm [1]: 0.0066
- (1:2) k′ (pH 3) [2]: 64.00
- (1:2) k′ (pH 5) [2]: 65.67
- (1:2) k′ (pH 7) [2]: 64.00
- (2:1) k′ (pH 3) [2]: 50.43
- (2:1) k′ (pH 5) [2]: 51.86
- (2:1) k′ (pH 7) [2]: 62.33

SMILES: CC(=O)Oc1ccccc1C(=O)O [acetyl salicylic acid]
- k′MIC [1]: 38.5714
- Retention Time [1]: 2.8
- Dm [1]: 0.0055
- (1:2) k′ (pH 3) [2]: 34.00
- (1:2) k′ (pH 5) [2]: 40.67
- (1:2) k′ (pH 7) [2]: 22.33
- (2:1) k′ (pH 3) [2]: 30.43
- (2:1) k′ (pH 5) [2]: 24.71
- (2:1) k′ (pH 7) [2]: 20.67

SMILES: CN(Cc1cnc2nc(N)nc(N)c2n1)c1ccc(C(=O)N[C@@H](CCC(=O)O)C(=O)O)cc1 [amethopterin]
- (1:2) k′ (pH 3) [2]: 10.67
- (1:2) k′ (pH 5) [2]: 29.00
- (1:2) k′ (pH 7) [2]: 12.33
- (2:1) k′ (pH 3) [2]: none
- (2:1) k′ (pH 5) [2]: 13.29
- (2:1) k′ (pH 7) [2]: 57.33

SMILES: COc1ccc(Cl)cc1C(=O)NCCc1ccc(S(=O)(=O)NC(=O)NC2CCCCC2)cc1 [glybenclamide]
- (1:2) k′ (pH 3) [2]: none
- (1:2) k′ (pH 5) [2]: 30.67
- (1:2) k′ (pH 7) [2]: 30.67
- (2:1) k′ (pH 3) [2]: none
- (2:1) k′ (pH 5) [2]: 19.00
- (2:1) k′ (pH 7) [2]: 34.00

SMILES: NCC(=O)O [glycine]
- (1:2) k′ (pH 3) [2]: none
- (1:2) k′ (pH 5) [2]: none
- (1:2) k′ (pH 7) [2]: none
- (2:1) k′ (pH 3) [2]: none
- (2:1) k′ (pH 5) [2]: none
- (2:1) k′ (pH 7) [2]: none

SMILES: O=C(CCCN1CCC(O)(c2ccc(Cl)cc2)CC1)c1ccc(F)cc1 [haloperidol]
- (1:2) k′ (pH 3) [2]: 30.67
- (1:2) k′ (pH 5) [2]: 44.00
- (1:2) k′ (pH 7) [2]: 110.67
- (2:1) k′ (pH 3) [2]: 23.29
- (2:1) k′ (pH 5) [2]: 34.71
- (2:1) k′ (pH 7) [2]: 95.67

SMILES: CC(C)C[C@H](N)C(=O)O [leucine]
- (1:2) k′ (pH 3) [2]: none
- (1:2) k′ (pH 5) [2]: none
- (1:2) k′ (pH 7) [2]: none
- (2:1) k′ (pH 3) [2]: none
- (2:1) k′ (pH 5) [2]: none
- (2:1) k′ (pH 7) [2]: none

SMILES: C=C[C@H]1C[N@@]2CC[C@H]1C[C@@H]2[C@@H](O)c1ccnc2ccc(OC)cc12 [quinidine, HCl]
- k′MIC [1]: 70.4286
- Retention Time [1]: 5.0
- Dm [1]: 0.0026

SMILES: O=C(O)c1cc(/N=N/c2ccc(S(=O)(=O)Nc3ccccn3)cc2)ccc1O [sulfasalazine]
- k′MIC [1]: 71.8571
- Retention Time [1]: 5.1
- Dm [1]: 0.0025
- (1:2) k′ (pH 3) [2]: 87.33
- (1:2) k′ (pH 5) [2]: 85.67
- (1:2) k′ (pH 7) [2]: 24.00
- (2:1) k′ (pH 3) [2]: 70.43
- (2:1) k′ (pH 5) [2]: 67.57
- (2:1) k′ (pH 7) [2]: 22.33

From US7659240B2, “Mucin immobilized chromatography” (Vertex Pharmaceuticals Incorporated, priority 2002, dated 2010)
